Measurements from article PMC12472352, “The Activation of Cytochrome P450 2C9 Is Facilitated by the Coenzyme Forms of Vitamin B2” (Molecules, 2025).

Columns and labels:
[1] = biological target: T1, cytochrome P450 2C9 (CYP2C9) (Homo sapiens, UniProt P11712); experiment: UV-vis absorption spectral titration (Soret peak) of purified recombinant CYP2C9; also electrochemical activation; format: binding
[2] = biological target: T1, cytochrome P450 2C9 (CYP2C9); experiment: electrochemical diclofenac […]'-hydroxylation by purified CYP2C9 with FMN ([…]); relative activity […]; format: biochemical
[3] = biological target: T1, cytochrome P450 2C9 (CYP2C9); experiment: amperometric titration (KM) on CYP2C9 + FMN electrode; […]'-hydroxydiclofenac formation by square-wave voltammetry; format: biochemical

T1 sequence (P11712 whole entry): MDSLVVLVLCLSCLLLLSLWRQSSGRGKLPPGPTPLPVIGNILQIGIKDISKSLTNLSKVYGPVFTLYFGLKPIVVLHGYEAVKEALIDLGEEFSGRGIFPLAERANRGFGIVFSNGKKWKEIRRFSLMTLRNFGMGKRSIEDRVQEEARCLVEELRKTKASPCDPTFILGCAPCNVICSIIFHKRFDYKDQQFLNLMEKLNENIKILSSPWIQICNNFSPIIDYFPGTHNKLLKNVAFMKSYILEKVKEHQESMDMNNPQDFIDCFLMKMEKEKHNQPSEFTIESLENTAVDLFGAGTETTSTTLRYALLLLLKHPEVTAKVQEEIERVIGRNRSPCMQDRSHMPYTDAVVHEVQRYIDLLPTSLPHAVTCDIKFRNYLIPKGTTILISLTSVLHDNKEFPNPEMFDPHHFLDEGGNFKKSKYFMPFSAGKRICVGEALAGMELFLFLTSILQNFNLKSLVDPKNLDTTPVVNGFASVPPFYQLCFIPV

Cc1cc2nc3c(=O)[nH]c(=O)nc-3n(C[C@H](O)[C@H](O)[C@H](O)COP(=O)(O)OP(=O)(O)OC[C@H]3O[C@@H](n4cnc5c(N)ncnc54)[C@H](O)[C@@H]3O)c2cc1C [FAD]
Kd [1]: 174 ± 52 µM

Cc1cc2nc3c(=O)[nH]c(=O)nc-3n(C[C@H](O)[C@H](O)[C@H](O)COP(=O)(O)O)c2cc1C [FMN]
Relative Activity, % [2]: 113 ± 6%

O=C(O)Cc1ccccc1Nc1c(Cl)cccc1Cl [diclofenac, 2-[2-(2,6-dichloroanilino)-phenyl]acetic acid]
KM, M [3]: (5.49 ± 0.52) ×10^−5 M
